Structures can show the parent of a compound that is named as a salt. Where two headings read alike, the source gives them in different places.
Test system: amyloid β production in transfected H4 (human neuroglioma) cells stably expressing APP constructs
Experiment: In vitro cell-based assay of inhibitors of amyloid β production (ELISA)
Details: transfected H4 cells stably expressing APP, approx. 16 h incubation, amyloid β in medium by ELISA, read-out: ACTIVITY (IC50, inhibition of amyloid β production)
How it was run: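 Aβ secreted into the medium was determined by a two-antibody ELISA specific for the Aβ C-terminus, calibrated with known Aβ amounts. Before that, compounds (10-100 μM initially) were left on the cells for roughly 16 hours.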

| Structure (SMILES) | IC50 [nM] | IC50 (Homo sapiens, 16 h) [nM] |
| --- | --- | --- |
| CC(c1ccccc1OCCN(C)S(=O)(=O)CC(F)(F)F)N(c1cc(F)ccc1F)S(=O)(=O)c1ccc(Cl)cc1 (stereo not drawn) [Example 701, 4-chloro-N-(2,5-difluorophenyl)-N-{1-[2-(2-{methyl[(2,2,2-trifluorophenyl)sulfonyl]amino}ethoxy)phenyl]ethyl}benzenesulfonamide] | 100 to 500 | – |
| O=S(=O)(c1ccc(Cl)cc1)N(Cc1ccccc1OCCCN1CCCCC1)c1ccc(Cl)cc1Cl [Example 706, 4-chloro-N-(2,4-dichlorophenyl)-N-{2-[3-(1-piperidinyl)propoxy]benzyl}benzenesulfonamide hydrochloride] | – | 100 to 500 |
| CCN(CCOc1ccccc1C(C)N(c1cc(F)ccc1F)S(=O)(=O)c1ccc(Cl)cc1)C(=O)NC(C)(C)C (stereo not drawn) [Example 709, N-[1-(2-{2-[[(tert-butylamino)carbonyl](ethyl)amino]ethoxy}phenyl)ethyl]-4-chloro-N-(2,5 difluorophenyl)benzenesulfonamide] | – | 100 to 500 |
| O=S(=O)(c1ccc(Cl)cc1)N(Cc1ccccc1C#CCN1CCCCC1)c1cc(F)ccc1F [Example 711, 4-chloro-N-(2,5-difluorophenyl)-N-{2-[3-(1-piperidinyl)-1-propynyl]benzyl}benzenesulfonamide hydrochloride] | – | 100 to 500 |
| CC(c1ccccc1OCCN(C)C(=O)NC(C)(C)C)N(c1cc(F)ccc1F)S(=O)(=O)c1ccc(Cl)cc1 (stereo not drawn) [Example 724, N-[1-(2-{2-[[(tert-butylamino)carbonyl](methyl)amino]ethoxy}phenyl)ethyl]-4-chloro-N-(2,5-difluorophenyl)benzenesulfonamide] | – | 100 to 500 |
| CCN(CCOc1ccccc1C(C)N(c1cc(F)ccc1F)S(=O)(=O)c1ccc(Cl)cc1)C(=O)NC(C)C (stereo not drawn) [Example 725, 4-chloro-N-(2,5-difluorophenyl)-N-{1-[2-(2-{ethyl[(isopropylamino)carbonyl]amino}ethoxy)phenyl]ethyl}benzenesulfonamide] | – | 100 to 500 |
| CC(c1ccccc1OCCN(C)S(=O)(=O)C(C)C)N(c1cc(F)ccc1F)S(=O)(=O)c1ccc(Cl)cc1 (stereo not drawn) [Example 735, 4-chloro-N-(2,5-difluorophenyl)-N-[1-(2-{2-[(isopropylsulfonyl)(methyl)amino]ethoxy}phenyl)ethyl]benzenesulfonamide] | – | 100 to 500 |
| O=S(=O)(c1ccc(Cl)cc1)N(Cc1ccccc1OCCCN1CC=CCC1)c1ccccc1 [Example 749, 4-chloro-N-{2-[3-(3,6-dihydro-1(2H)-pyridinyl)propoxy]benzyl}-N-phenylbenzenesulfonamide hydrochloride] | – | 100 to 500 |
| CN(CCCOc1ccccc1CN(c1cc(F)ccc1F)S(=O)(=O)c1ccc(Cl)cc1)C(=O)c1ccc(-c2ccccc2)cc1 [Example 752, N-{3-[2-({[(4-chlorophenyl)sulfonyl]-2,5-difluoroanilino}methyl)phenoxy]propyl}-N-methyl[1,1′-biphenyl]-4-carboxamide] | 100 to 500 | – |
| O=S(=O)(CCOc1ccccc1CN(c1cc(F)ccc1F)S(=O)(=O)c1ccc(Cl)cc1)C1CCCCC1 [Example 754, 4-chloro-N-{2-[2-(cyclohexylfulfonyl)ethoxy]benzyl}-N-(2,5-difluorophenyl)benzenesulfonamide] | 100 to 500 | – |
| CC(c1ccccc1OCCCN(C)S(=O)(=O)/C=C/c1ccccc1)N(c1cc(F)ccc1F)S(=O)(=O)c1ccc(Cl)cc1 (stereo not drawn) [Example 773, 4-chloro-N-(2,5-difluorophenyl)-N-(1-{2-[3-(methyl{[(E)-2-phenylethyl]sulfonyl}amino)propoxy]phenyl}ethyl)benzenesulfonamide] | 100 to 500 | – |
| CCCCC(=O)N(CC)CC(C)Oc1ccccc1C(C)N(c1cc(F)ccc1F)S(=O)(=O)c1ccc(Cl)cc1 (stereo not drawn) [Example 777, N-{2-[2-(1-{[(4-chlorophenyl)sulfonyl]-2,5-difluoroanilino}ethyl)phenoxy]propyl}-N-ethylpentamide] | 100 to 500 | – |
| CCCC(C)N(Cc1ccccc1OCCCN1CCCCC1)S(=O)(=O)c1ccc(Cl)cc1 (stereo not drawn) [Example 781, 4-chloro-N-(1-methylbutyl)-N-{2-[3-(1-piperidinyl)propoxy]benzyl}benzenesulfonamide hydrochloride] | – | 100 to 500 |
| CCCC(C)N(Cc1ccccc1OCCCN1CCCCC1)S(=O)(=O)c1ccc(Cl)cc1 (stereo not drawn) [Example 782, 4-chloro-N-(1-methylbutyl)-N-{2-[3-(1-piperidinyl)propoxy]benzyl}benzenesulfonamide hydrochloride] | 100 to 500 | – |
| O=C(c1ccccc1F)N1CCCCC1CCOc1ccccc1CN(c1cc(F)ccc1F)S(=O)(=O)c1ccc(Cl)cc1 (stereo not drawn) [Example 787] | 100 to 500 | – |
| CC(c1ccccc1OCCCN(C)S(=O)(=O)c1cccc(C(F)(F)F)c1)N(c1cc(F)ccc1F)S(=O)(=O)c1ccc(Cl)cc1 (stereo not drawn) [Example 788, N-{3-[2-(1-{[(4-chlorophenyl)sulfonyl]-2,5-difluoroanilino}ethyl)phenoxy]propyl}-N-methyl-3-(trifluoromethyl)benzenesulfonamide] | 100 to 500 | – |

Continued, values first:

| IC50 [nM] | IC50 (Homo sapiens, 16 h) [nM] | Structure (SMILES) |
| --- | --- | --- |
| – | 100 to 500 | O=S(=O)(c1ccc(Cl)cc1)N(Cc1ccccc1OCCC[S+]([O-])c1ccccc1)c1cc(F)ccc1F (stereo not drawn) [Example 702, 4-chloro-N-(2,5-difluorophenyl)-N-{2-[3-(phenylsulfinyl)propoxy]benzyl}benzenesulfonamide] |
| – | 100 to 500 | O=C1CCCC(=O)N1CCCOc1ccccc1CN(c1cc(F)ccc1F)S(=O)(=O)c1ccc(Cl)cc1 [Example 704, 4-chloro-N-(2,5-difluorophenyl)-N-{2-[3-(2,6-dioxo-1-piperidinyl)propoxy]benzyl}benzenesulfonamide] |
| 100 to 500 | – | CCCCC(=O)N(C)CCCOc1ccccc1CN(c1cc(F)ccc1F)S(=O)(=O)c1ccc(Cl)cc1 [Example 717, N-{3-[2-({[(4-chlorophenyl)sulfonyl]-2,5-difluoroanilino}methyl)phenoxy]propyl}-N-methylpentamide] |
| – | 100 to 500 | O=S(=O)(c1ccc(Cl)cc1)N(Cc1ccccc1OCCCN1CCCC1)c1ccccc1 [Example 718, 4-chloro-N-phenyl-N-{2-[3-(1-pyrrolidinyl)propoxy]benzyl}benzenesulfonamide hydrochloride] |
| – | 100 to 500 | CC(C)NC(=O)N(C)CCCOc1ccccc1CN(c1cc(F)ccc1F)S(=O)(=O)c1ccc(Cl)cc1 [Example 734, 4-chloro-N-(2,5-difluorophenyl)-N-(2-{3-[[(isopropylamino)carbonyl](methyl)amino]propoxy}benzyl)benzenesulfonamide] |
| – | 100 to 500 | O=S(=O)(c1ccc(Cl)cc1)N(Cc1ccccc1OCCCn1ccnc1)c1cc(Cl)ccc1Cl [Example 740, 4-chloro-N-(2,5-dichlorophenyl)-N-{2-[3-(1H-imidazol-1-yl)propoxy]benzyl}benzenesulfonamide hydrochloride] |
| – | 100 to 500 | O=C(c1ccccc1)N1CCCCC1CCOc1ccccc1CN(c1cc(F)ccc1F)S(=O)(=O)c1ccc(Cl)cc1 (stereo not drawn) [Example 745, N-{2-[2-(1-benzoyl-2-piperidinyl)ethoxy]benzyl}-4-chloro-N-(2,5-difluorophenyl)benzenesulfonamide] |
| – | 100 to 500 | O=S(=O)(c1ccc(Cl)cc1)N(Cc1ccccc1OCCC1CCCCN1Cc1cc(F)cc(F)c1)c1cc(F)ccc1F (stereo not drawn) [Example 746, 4-chloro-N-(2-{2-[1-(3,5-difluorobenzyl)-2-piperidinyl]ethoxy}benzyl)-N-(2,5-difluorophenyl)benzenesulfonamide] |
| – | 100 to 500 | O=S(=O)(c1ccc(Cl)cc1)N(Cc1ccccc1Cn1ncnn1)c1cc(F)ccc1F [Example 751, 4-chloro-N-(2,5-difluorophenyl)-N-[2-(2H-tetraazol-2-ylmethyl)benzyl]benzenesulfonamide] |
| 100 to 500 | – | CC(c1ccccc1OCCCNC(=O)c1cccc(F)c1)N(c1cc(F)ccc1F)S(=O)(=O)c1ccc(Cl)cc1 (stereo not drawn) [Example 761] |
| 100 to 500 | – | Cc1cccc(C(=O)N(C)CCCOc2ccccc2C(C)N(c2cc(F)ccc2F)S(=O)(=O)c2ccc(Cl)cc2)c1 (stereo not drawn) [Example 766] |
| 100 to 500 | – | CCOc1ccc(C(=O)N(C)CCCOc2ccccc2C(C)N(c2cc(F)ccc2F)S(=O)(=O)c2ccc(Cl)cc2)cc1 (stereo not drawn) [Example 768] |
| – | 100 to 500 | O=S(=O)(c1ccc(Cl)cc1)N(Cc1ccccc1Cn1ccnc1)c1cc(F)ccc1F [Example 772, 4-chloro-N-(2,5-difluorophenyl)-N-[2-(1H-imidazol-1-ylmethyl)benzyl]benzenesulfonamide] |
| – | 100 to 500 | O=C(C1CC1c1ccccc1)N1CCCCC1CCOc1ccccc1CN(c1cc(F)ccc1F)S(=O)(=O)c1ccc(Cl)cc1 (stereo not drawn) [Example 780, 4-chloro-N-(2,5-difluorophenyl)-N-[2-(2-{1-[(2-phenylcyclopropyl)carbonyl]-2-piperidinyl}ethoxy)benzyl]benzenesulfonamide] |
| 100 to 500 | – | CC(C)CC(=O)N(C)CCCOc1ccccc1CN(c1cc(F)ccc1F)S(=O)(=O)c1ccc(Cl)cc1 [Example 791, N-{3-[2-({[(4-chlorophenyl)sulfonyl]-2,5-difluoroanilino}methyl)phenoxy]propyl}-N,3-dimethylbutamide] |
| – | 100 to 500 | O=C(c1cccc2ccccc12)N1CCCCC1CCOc1ccccc1CN(c1cc(F)ccc1F)S(=O)(=O)c1ccc(Cl)cc1 (stereo not drawn) [Example 792, 4-chloro-N-(2,5-difluorophenyl)-N-(2-{2-[1-(1-naphthoyl)-2-piperidinyl]ethoxy}benzyl)benzenesulfonamide] |
| – | 100 to 500 | CC(c1ccccc1OCCCN(C)S(=O)(=O)c1ccc(Cl)cc1)N(c1cc(F)ccc1F)S(=O)(=O)c1ccc(Cl)cc1 (stereo not drawn) [Example 794, 4-chloro-N-[1-(2-{3-[[(4-chlorophenyl)sulfonyl](methyl)amino]propoxy}phenyl)ethyl]-N-(2,5-difluorophenyl)benzenesulfonamide] |

Source: patent publication US6967196B1, “Sulfonamide compounds and uses thereof” (Bristol-Myers Squibb Company, priority 1999, dated 2005)
